Measurements: patent US5747540A, “HIV protease inhibitors useful for the treatment of AIDS” (Merck & Co., Inc., priority 1996, dated 1998)

What was measured:
HIV protease = molecular target: T1, HIV protease (Human immunodeficiency virus type 1 group M subtype B, UniProt P12497); experiment: Assay for inhibition of microbial expressed HIV protease (peptide substrate, HPLC); type: biochemical; details: protease expressed in Eschericia coli, 50 mM Na acetate, pH 5.5, 30° C., 1 hour
T1 construct: the protease expressed in Eschericia coli; made in house; host or cells: Escherichia coli
Procedure: Assay for Inhibition of Microbial Expressed HIV Protease
Inhibition studies of the reaction of the protease expressed in Eschericia coli with a peptide substrate [Val-Ser-Gln-Asn(betanapthyl)Ala-Pro-Ile-Val, 0.5 mg/mL at the time the reaction is initiated] were in 50 mM Na acetate, pH 5.5, at 30° C. for 1 hour. Various concentrations of inhibitor in […] DMSO were added to […] of the peptide solution in water. The reaction is initiated by the addition of […] of 0.33 nM protease (0.11 ng) in a solution of 0.133M Na acetate pH 5.5 and 0.1% bovine serum albumin. The reaction was quenched with 160 ml of 5% phosphoric acid. Products of the reaction were separated by HPLC (VYDAC wide pore 5 cm C-18 reverse phase, acetonitrile gradient, 0.1% phosphoric acid). The extent of inhibition of the reaction was determined from the peak heights of the products.

HIV-1 strain IIIb = experiment: Inhibition of virus spread in HIV-infected MT-4 cells (p24 antigen); type: cell-based; details: Human immunodeficiency virus 1, MT4, 72 h; HIV-1 IIIb-infected MT-4 cells; 3 days incubation; HIV p24 antigen in supernatant; read-out: CIC95
Procedure: INHIBITION OF VIRUS SPREAD
A. Preparation of HIV-infected MT-4 cell Suspension.
MT cells were infected at Day 0 at a concentration of 250,000 per ml with a 1:1000 dilution of HIV-1 strain IIIb stock (final 125 pg p24/ml; sufficient to yield ≤1% infected cells on day 1 and 25-100% on day 4). Cells were infected and grown in the following medium: RPMI 1640 (Whittaker BioProducts), 10% inactivated fetal bovine serum, 4 mM glutamine (Gibco Labs) and 1:100 Penicillin-Streptomycin (Gibco Labs).
The mixture was incubated overnight at 37° C. in 5% CO2 atmosphere.
B. Treatment with Inhibitors
A matrix of nanomolar range concentrations of the pairwise combinations was prepared. At Day 1, aliquots of […] of inhibitors were added to equal volumes of HIV-infected MT-4 cells (50,000 per well) in a 96-well microtiter cell culture plate. Incubation was continued for 3 days at 37° C. in 5% CO2 atmosphere.
C. Measurement of Virus Spread
Using a multichannel pipettor, the settled cells were resuspended and […] harvested into a separate microtiter plate. The supernatant was assayed for HIV p24 antigen.
The concentration of HIV p24 antigen was measured by an enzyme immunoassay,described as follows. Aliquots of p24 antigen to be measured were added to microwells coated with a monoclonal antibody specific for HIV core antigen. […]

SMILES: Cc1ccc(C[C@@H](O)C[C@@H](Cc2ccccc2)C(=O)N[C@H]2c3ccccc3C[C@H]2O)c(C(=O)NC(C)(C)C)c1 [Compound C]
- IC50 (HIV protease): 1 to 6 nM

SMILES: CC(C)(C)NS(=O)(=O)c1ccccc1C[C@@H](O)C[C@@H](Cc1ccccc1)C(=O)N[C@H]1c2ccccc2C[C@H]1O [Compound B]
- IC50 (HIV protease): 1 to 6 nM
- IC95 (HIV-1 strain IIIb): 1500 nM

SMILES: CC(C)(C)NC(=O)c1ccccc1C[C@@H](O)C[C@@H](Cc1ccccc1)C(=O)N[C@H]1c2ccccc2C[C@H]1O [Compound A]
- IC50 (HIV protease): 1 to 6 nM
- IC95 (HIV-1 strain IIIb): 800 nM
